The results in this text go back to PubChem BioAssay (NCI).

Common to all, as to assay: NCI-60 cell line screen, 48 h
Test [1] deals with 786-0 renal.
Test [2] deals with CCRF-CEM leukemia.
Test [3] relates to COLO 205 colon.
Test [4] concerns HCT-116 colon.
Test [5] has as its system HOP-92 NSCLC.
Test [6] has as its system HT29 colon.
Test [7] relates to LOX IMVI melanoma.
The test system of test [8] is MCF7 breast.
Test [9] relates to MDA-N.
Test [10] concerns NCI-H226 lung.
For test [11], the system named is OVCAR-4 ovarian.
Test [12] deals with OVCAR-5 ovarian.
In test [13] the test system is SF-268 CNS.
Test [14] concerns SF-295 CNS.
Test [15] deals with SF-539 CNS.
The subject of test [16] is SR leukemia.
Test [17] relates to TK-10 renal.
The subject of test [18] is UACC-257 melanoma.
Test [19] has as its system BT-549 breast.
Test [20] concerns UO-31 renal.

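1) Cells in 96-well plates. 2) Compound, 48 h, 5 concentrations. 3) Linear interpolation between surrounding doses. 4) Unreached endpoint = highest concentration. TGI is the concentration that stops growth completely.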 Where only a bound is given, the exact number is not on record here.

Turning to `COc1ccc(NC(=O)CSc2nc(C)nc3c2sc(=S)n3-c2ccccc2)cc1`, the TGI in [1], in test [2], in test [3], in test [4], in test [5] and in test [6] was over 10 µM throughout. In addition, the TGI in test [7] is over 10 µM; in test [8], over 10 µM; in [9], over 10 µM; in [10], over 10 µM; in test [11] it was 9.29 µM; in test [12], over 10 µM. Further, the TGI in test [13] is over 10 µM; in [14], over 10 µM; in test [15], 4.97 µM; in [16] it was over 10 µM; in [17] it was over 10 µM; in test [18] it was over 10 µM.

For `O=[N+]([O-])c1ccc(C2Nn3c(nnc3-c3cccc([N+](=O)[O-])c3)S2)cc1` (stereo not given), the TGI in test [1], in [19], in test [2], in [3], in test [4] and in [5] was over 100 µM throughout. Also, the TGI in test [6], in test [7], in test [8], in test [10], in [11] and in [12] was over 100 µM throughout. The TGI in test [13], in test [14], in test [15], in [16], in test [17] and in test [18] was over 100 µM each time. This molecule also displayed a TGI in test [20] of over 100 µM.

Turning to `CSc1ncc2c(C#N)c3n(C)c4ccccc4n3c(=O)c2n1`, the TGI in [1], in test [19], in test [2], in test [3], in test [4] and in [5] was over 100 µM each time. The TGI in test [6], in [7], in test [8], in test [10], in test [11] and in test [12] was over 100 µM in each case. For the same molecule, the TGI in test [13], in test [14], in [15], in [16], in test [17] and in test [18] was over 100 µM each time. This molecule also came in with a TGI in test [20] of over 100 µM.

For the molecule `Cc1cc(N(C)c2ccccc2)nc(N(C)c2ccccc2)n1`, the TGI was over 100 µM in [1]; 46.5 µM in test [2]; 49.1 µM in test [3]; 37.6 µM in [4]; 39 µM in [6]; 27.9 µM in test [7]. Further, the TGI is 68.4 µM in [8]; over 100 µM in test [9]; 96 µM in [10]; over 100 µM in test [11]; 52.6 µM in test [12]; over 100 µM in [13]. Also, the TGI is 92.5 µM in test [14]; 66.5 µM in [15]; 55.5 µM in test [16]; over 100 µM in [17]; 57.7 µM in test [18]; over 100 µM in test [20].

In the case of `CC1(C)COC(c2cccc(C(O)c3ccc(Cl)cc3)c2)=N1` (stereo not given), the TGI in test [1] was 59.8 µM; in [2] it was over 100 µM; in [3], 34 µM; in test [4], 37.9 µM; in test [5] it was 59 µM; in [6] it was 37.2 µM. The TGI in test [7] is 29.1 µM; in test [8], 39.6 µM; in test [9] it was 70 µM; in test [10] it was 33.5 µM; in test [11], over 100 µM; in test [12], 45.5 µM. For the same molecule, the TGI was 87.3 µM in test [13]; 42.5 µM in test [15]; over 100 µM in test [16]; 76.3 µM in test [17]; 46.7 µM in [20].

In the case of `C[n+]1c(-c2ccc(/C=N\Nc3ccnc(N/N=C/c4ccc(-c5cn6ccsc6[n+]5C)cc4)n3)cc2)cn2ccsc21`, the TGI is 32.8 µM in [1]; 63.8 µM in test [2]; 66.6 µM in test [3]; over 100 µM in test [5]; over 100 µM in test [6]; over 100 µM in test [8]. The TGI in test [9] was 26.7 µM; in test [10] it was 66.7 µM; in test [11] it was over 100 µM; in [12] it was over 100 µM; in [15], 70.3 µM; in test [16] it was 64.8 µM. The TGI is over 100 µM in test [17], 43.9 µM in test [18] and over 100 µM in test [20].

On to `CN(C)C12C=CC=CC3=C(c4ccccc4)C(c4ccccc4)=C(c4ccccc4)C31c1ccccc1C2` (stereo not given), for which the TGI in [1], in [2], in [3], in [4], in test [6] and in test [8] was over 100 µM throughout. Besides, the TGI in test [9], in [11], in test [12], in [13], in test [14] and in test [15] was over 100 µM each time. The TGI in test [16], in test [17], in [18] and in test [20] was over 100 µM in each case.

Turning to `O=C(Oc1ccc(C(c2c(O)c3ccccc3oc2=O)c2c(O)c3ccccc3oc2=O)cc1)c1ccc(C(=O)c2ccccc2)cc1`, the TGI in test [1] was over 100 µM; in test [2] it was 42.8 µM; in test [3] it was over 100 µM; in [4], over 100 µM; in [6], 31.8 µM; in test [7] it was 52.1 µM. In addition, the TGI was over 100 µM in test [8]; over 100 µM in [9]; 25.9 µM in test [10]; 92.1 µM in [11]; 38.3 µM in test [12]; 66.5 µM in test [13]. The TGI in test [14] was found to be 51.3 µM; in [15], 36.5 µM; in test [16] it was 55.7 µM; in test [17], 37.8 µM; in test [18], 33.9 µM; in [20], 31.6 µM.
